From PMC8195987, “Structural basis for plazomicin antibiotic action and resistance” (Communications Biology, 2021)

Target: T1, AAC(2′)-Ia (Providencia stuartii, UniProt Q52424)
T1 construct: synthetic gene in pET-15b, E. coli BL21(DE3); N-terminal His-tag removed with thrombin; homodimer
Assay: X-ray crystal structure
Assay type: binding
Conditions: product complex with acetylated plazomicin, 1.95 Å; formed from acetyl-CoA during crystallization; active site

T1 sequence (Q52424 whole entry): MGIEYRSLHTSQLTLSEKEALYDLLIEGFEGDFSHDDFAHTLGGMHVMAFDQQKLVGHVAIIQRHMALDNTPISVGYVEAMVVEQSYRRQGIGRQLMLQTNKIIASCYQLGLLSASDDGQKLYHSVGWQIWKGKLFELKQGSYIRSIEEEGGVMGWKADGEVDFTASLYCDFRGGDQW

CC(C)(COP(=O)(O)OP(=O)(O)OC[C@H]1O[C@@H](n2cnc3c(N)ncnc32)[C@H](O)[C@@H]1OP(=O)(O)O)[C@@H](O)C(=O)NCCC(=O)NCCS [CoA]
X-ray crystal structure: identified the enzymatically modified plazomicin and CoA in the active site
